Bridge positions count the residues as written; N and C are the ends. Square brackets hold non-standard residues; d marks the D form. Peptide text beside a SMILES is read from it. Hyp = O=C(O)[C@@H]1C[C@@H](O)CN1

Experimental findings from patent US5795864A (priority 1995, dated 1998) are described below.

The target in this experiment is OCT MVIIA (SNX-111) binding site (site 1) (Rattus norvegicus, UniProt Q02294). Description: biochemical.
OCT MVIIA (SNX-111) binding site (site 1), sequence (Q02294 whole entry, looked up): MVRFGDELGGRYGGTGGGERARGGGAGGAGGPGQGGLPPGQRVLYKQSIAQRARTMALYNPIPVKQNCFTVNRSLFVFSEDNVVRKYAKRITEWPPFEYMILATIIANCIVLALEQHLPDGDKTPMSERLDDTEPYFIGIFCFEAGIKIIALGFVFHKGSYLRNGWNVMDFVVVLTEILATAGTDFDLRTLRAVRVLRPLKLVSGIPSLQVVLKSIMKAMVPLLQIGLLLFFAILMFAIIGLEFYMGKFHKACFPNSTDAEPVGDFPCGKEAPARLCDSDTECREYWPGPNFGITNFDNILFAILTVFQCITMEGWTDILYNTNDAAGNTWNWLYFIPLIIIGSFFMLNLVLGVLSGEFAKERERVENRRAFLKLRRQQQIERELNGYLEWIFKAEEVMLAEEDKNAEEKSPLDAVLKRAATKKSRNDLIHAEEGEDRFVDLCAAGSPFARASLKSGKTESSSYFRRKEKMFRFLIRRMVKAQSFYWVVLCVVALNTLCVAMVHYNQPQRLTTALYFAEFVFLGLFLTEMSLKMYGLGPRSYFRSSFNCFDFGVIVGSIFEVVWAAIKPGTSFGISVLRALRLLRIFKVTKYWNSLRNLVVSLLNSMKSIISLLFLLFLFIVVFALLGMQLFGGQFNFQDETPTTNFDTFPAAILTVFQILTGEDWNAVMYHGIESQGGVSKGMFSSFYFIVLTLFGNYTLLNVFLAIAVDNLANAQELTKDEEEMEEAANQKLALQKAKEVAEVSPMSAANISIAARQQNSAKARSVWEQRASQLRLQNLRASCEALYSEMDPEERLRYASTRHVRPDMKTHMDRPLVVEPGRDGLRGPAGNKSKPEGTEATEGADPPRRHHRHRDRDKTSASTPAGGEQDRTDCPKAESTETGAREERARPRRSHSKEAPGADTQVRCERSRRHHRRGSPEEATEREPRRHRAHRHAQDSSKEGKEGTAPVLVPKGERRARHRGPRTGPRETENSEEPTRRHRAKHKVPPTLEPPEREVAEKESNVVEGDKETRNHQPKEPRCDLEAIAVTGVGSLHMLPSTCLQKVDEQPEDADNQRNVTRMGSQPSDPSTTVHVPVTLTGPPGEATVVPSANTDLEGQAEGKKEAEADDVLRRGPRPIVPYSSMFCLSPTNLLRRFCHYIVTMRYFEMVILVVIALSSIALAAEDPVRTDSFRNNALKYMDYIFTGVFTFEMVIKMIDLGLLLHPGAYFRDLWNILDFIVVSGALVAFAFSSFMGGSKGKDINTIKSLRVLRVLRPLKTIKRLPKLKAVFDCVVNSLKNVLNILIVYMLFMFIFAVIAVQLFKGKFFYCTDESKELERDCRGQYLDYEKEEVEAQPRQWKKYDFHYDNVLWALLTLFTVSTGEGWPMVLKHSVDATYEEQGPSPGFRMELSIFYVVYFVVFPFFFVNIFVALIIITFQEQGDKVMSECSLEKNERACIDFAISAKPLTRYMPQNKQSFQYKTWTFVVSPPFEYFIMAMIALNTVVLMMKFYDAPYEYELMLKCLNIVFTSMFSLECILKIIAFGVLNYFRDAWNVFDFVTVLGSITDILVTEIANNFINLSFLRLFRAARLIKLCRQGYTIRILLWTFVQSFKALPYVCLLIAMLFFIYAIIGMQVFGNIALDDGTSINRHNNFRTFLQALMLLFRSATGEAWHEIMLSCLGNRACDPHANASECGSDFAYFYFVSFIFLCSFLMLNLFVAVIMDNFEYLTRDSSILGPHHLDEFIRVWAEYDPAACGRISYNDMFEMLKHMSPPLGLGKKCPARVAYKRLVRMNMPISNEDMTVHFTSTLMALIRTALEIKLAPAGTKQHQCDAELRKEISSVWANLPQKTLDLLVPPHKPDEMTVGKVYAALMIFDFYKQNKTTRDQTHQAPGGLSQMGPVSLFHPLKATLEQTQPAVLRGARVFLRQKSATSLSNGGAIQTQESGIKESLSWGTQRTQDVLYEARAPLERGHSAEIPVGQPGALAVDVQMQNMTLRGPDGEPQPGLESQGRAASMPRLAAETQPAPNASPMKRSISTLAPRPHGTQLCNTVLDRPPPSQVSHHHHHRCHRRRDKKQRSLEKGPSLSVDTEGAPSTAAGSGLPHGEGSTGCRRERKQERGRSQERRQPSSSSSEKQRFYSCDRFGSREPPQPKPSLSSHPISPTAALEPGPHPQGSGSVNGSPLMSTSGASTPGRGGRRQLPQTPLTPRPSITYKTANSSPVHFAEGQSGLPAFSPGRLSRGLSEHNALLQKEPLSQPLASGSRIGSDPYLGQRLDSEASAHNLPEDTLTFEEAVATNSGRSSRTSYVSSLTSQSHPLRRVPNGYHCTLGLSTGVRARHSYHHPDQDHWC

Regarding `CC[C@H](C)[C@@H]1NC(=O)[C@H](CO)NC(=O)[C@H]([C@@H](C)O)NC(=O)[C@H](C(C)C)NC(=O)CNC(=O)[C@@H]2CSSC[C@@H]3NC(=O)[C@H](CCCNC(=N)N)NC(=O)CNC(=O)[C@H](CSSC[C@H](N)C(=O)N[C@@H](CCCNC(=N)N)C(=O)N[C@@H](CO)C(=O)N[C@@H](CO)C(=O)NCC(=O)N[C@@H](CO)C(=O)N4C[C@H](O)C[C@H]4C(=O)N2)NC(=O)[C@H](CSSC[C@@H](C(=O)N[C@H](C(N)=O)[C@@H](C)O)NC(=O)[C@H](CCCCN)NC(=O)CNC(=O)[C@H](CCCNC(=N)N)NC(=O)[C@H](Cc2ccc(O)cc2)NC3=O)NC1=O` [SNX-157] (H-CRSSGS[Hyp]CGVTSICCGRCYRGKCT-NH2; disulfide 1-15, 8-18, 14-23), the half-maximal inhibitory concentration (IC50) (as a rule, the point on the concentration scale where inhibition reaches its midpoint) turned out to be 1460 nM. That is a single-digit micromolar value.
